Results as given in PMC11923649, “Novel C-2 Aromatic Heterocycle-Substituted Triterpenoids Inhibit Hedgehog Signaling in GLI1 Overexpression Cancer Cells” (ACS Omega, 2025).

Legend:
[1] = tested on: MRC-5 lung fibroblasts; experiment: MTS cytotoxicity assay, 72 h, MRC-5 fibroblasts; format: cell-based, human; details: Homo sapiens, MRC5, 72 h, normal fibroblasts, full Table S1
Protocol: (§1) Based on the preliminary results and tests of a larger library of known triterpenoids, a small set of 2-substituted lupane and 18α-oleanane derivatives was designed and synthesized. As the first step, the cytotoxic activity of the synthesized derivatives was assessed using an MTS assay following 72 h of treatment (Table 1). Selected cell lines A549 (lung adenocarcinoma) and DU-145 (prostate cancer) are both dependent on Hh signaling. In addition, K562 (chronic myelogenous leukemia) was included as a cell line sensitive to Hh inhibitors[32] and a type of hematological malignancy with active Hh signaling.[33] MRC-5 lung fibroblasts and BJ human skin fibroblasts cell lines were used to evaluate the toxicity against nontumor cells. Compounds were also tested using the standard panel of other cancer cell lines, as described in our earlier work (Table 1).[27]
(§2) The human prostate tumor-derived cell line DU145 was obtained from ATCC (American Type Culture Collection) and cultured in RPMI 1640 (Roswell Park Memorial Institute) medium supplemented with 10% (v/v) fetal bovine serum (FBS). Human prostate tumor-derived LNCaP cells were obtained from ATCC and cultured in RPMI 1640 medium supplemented with 10% FBS. The human nonsmall cell lung carcinoma (NSCLC)-derived cell line HOP-62 was obtained from the DSMZ (German Collection of Microorganisms and Cell Cultures) and cultured in RPMI 1640 medium supplemented with 10% FBS. The human nonsmall cell lung carcinoma-derived cell line NCI-H322 was obtained from ECACC (European Collection of Authenticated Cell Cultures) and cultured in RPMI 1640 medium supplemented with 10% FBS. The human nonsmall cell lung carcinoma-derived cell line NCI-H522 was obtained from ATCC and cultured in RPMI 1640 medium supplemented with 10% FBS. The human lung tumor-derived cell line A549 was obtained from ATCC and cultured in Dulbecco’s Modified Eagle’s Medium (DMEM) supplemented with 10% FBS. The human medulloblastoma-derived cell line DAOY was obtained from ATCC and cultured in Eagle’s Minimum Essential Medium (EMEM) supplemented with 10% FBS. The human glioblastoma-derived cell line T98G was obtained from ATCC and cultured in EMEM medium supplemented with 10% FBS, 1 mmol/L sodium pyruvate, and 1 mmol/L nonessential amino acid mixture. All the above-mentioned cell lines were cultured at 37 °C in an atmosphere of 5% CO2 with 95% humidity. The cytotoxicity MTS assays were performed using MTS (3-(4,5-dimethylthiazol-2-yl)-5-(3-carboxymethoxyphenyl)-2-(4-sulfophenyl)-2H-tetrazolium) tetrazolium salt. Briefly, cells were seeded in a 384-well transparent plate in a volume of 25 μL and a concentration of 15,000 cells/mL (DU145, LNCaP, HOP-62, A549, DAOY, T98G) or 30,000 cells/mL (NCI-H322, NCI-H522). The next day, cells were exposed to compounds in a concentration range of 50–0.0975 μmol/L (dilution factor 2) and cultured in the presence of the compounds for 72 h. After 72 h, 5 μL of MTS/phenazine methosulfate solution was pipetted into each well and incubation continued for 1–4 h. Finally, the absorbance at 490 nm was measured using an EnVision multifunctional modular reader (PerkinElmer). The IC50 value was determined using Dotmatics software.

[2] = tested on: HCT116 p53–/–; experiment: MTS cytotoxicity assay, 72 h, HCT116 p53–/–; format: cell-based; details: Homo sapiens, HCT-116, 72 h, full Table S1
Protocol: as §1, §2

[3] = tested on: CEM-DNR; experiment: MTS cytotoxicity assay, 72 h, CEM-DNR; format: cell-based; details: Homo sapiens, full Table S1
Protocol: as §1, with “1).[27] […]” for “1).[27]”

[4] = tested on: A549 (lung adenocarcinoma); experiment: MTS cytotoxicity assay, 72 h, A549; format: cell-based; details: Homo sapiens, A549, 72 h, full Table S1
Protocol: as §1, §2

[5] = tested on: HCT 116; experiment: MTS cytotoxicity assay, 72 h, HCT 116; format: cell-based; details: Homo sapiens, HCT-116, 72 h, full Table S1
Protocol: as §1, §2

[6] = tested on: CCRF-CEM; experiment: MTS cytotoxicity assay, 72 h, CCRF-CEM; format: cell-based; details: full Table S1; for SI (selectivity index): CCRF-CEM vs average of BJ and MRC-5; for IC50: Homo sapiens, CCRF-CEM, 72 h, MTS
Protocol: as §1, §2

[7] = tested on: BJ human skin fibroblasts; experiment: MTS cytotoxicity assay, 72 h, BJ fibroblasts; format: cell-based; details: Homo sapiens, Skin fibroblast, normal fibroblasts, full Table S1
Protocol: as §1, §2

[8] = tested on: U2OS; experiment: MTS cytotoxicity assay, 72 h, U2OS; format: cell-based; details: Homo sapiens, full Table S1
Protocol: as §1, §2

[9] = tested on: DU-145 (prostate cancer); experiment: MTS cytotoxicity assay, 72 h, DU-145; format: cell-based, human; details: Homo sapiens, DU-145, 72 h, full Table S1
Protocol: as §1, §2

[10] = tested on: K562-TAX; experiment: MTS cytotoxicity assay, 72 h, K562-TAX; format: cell-based; details: full Table S1
Protocol: as §1, §2

[11] = tested on: K562 (chronic myelogenous leukemia); experiment: MTS cytotoxicity assay, 72 h, K562; format: cell-based; details: Homo sapiens, full Table S1
Protocol: as §1, §2

## C=C(C)[C@@H]1CC[C@]2(C(=O)OCc3ccccc3)CC[C@]3(C)C(CCC4[C@@]5(C)C=C(c6ccoc6)C(=O)C(C)(C)C5CC[C@]43C)C12 (stereo partly drawn) [Compound 10b, Benzyl 2-(3-Furanyl)-3-oxolupa-1,20(29)-dien-28-oate]
[1]
  IC50: > 50 µM
[2]
  IC50: > 50 µM
[3]
  IC50: > 50 µM
[4]
  IC50: > 50 µM
[5]
  IC50: > 50 µM
[6]
  SI (selectivity index): > 1.0
  IC50: > 50 µM
[7]
  IC50: > 50 µM
[8]
  IC50: > 50 µM
[9]
  IC50: > 50 µM
[10]
  IC50: > 50 µM
[11]
  IC50: > 50 µM

## C=C(C)[C@@H]1CC[C@]2(C(=O)OCc3ccccc3)CC[C@]3(C)C(CCC4[C@@]5(C)C=C(c6cccs6)C(=O)C(C)(C)C5CC[C@]43C)C12 (stereo partly drawn) [Compound 10c, Benzyl 2-(2-Thiophenyl)-3-oxolupa-1,20(29)-dien-28-oate]
[1]
  IC50: > 50 µM
[2]
  IC50: > 50 µM
[3]
  IC50: > 50 µM
[4]
  IC50: > 50 µM
[5]
  IC50: > 50 µM
[6]
  SI (selectivity index): > 1.0
  IC50: > 50 µM
[7]
  IC50: > 50 µM
[8]
  IC50: > 50 µM
[9]
  IC50: > 50 µM
[10]
  IC50: > 50 µM
[11]
  IC50: > 50 µM

## C=C(C)[C@@H]1CC[C@]2(C(=O)OCc3ccccc3)CC[C@]3(C)C(CCC4[C@@]5(C)C=C(c6ccsc6)C(=O)C(C)(C)C5CC[C@]43C)C12 (stereo partly drawn) [Compound 10d, Benzyl 2-(3-Thiophenyl)-3-oxolupa-1,20(29)-dien-28-oate]
[1]
  IC50: > 50 µM
[2]
  IC50: > 50 µM
[3]
  IC50: > 50 µM
[4]
  IC50: > 50 µM
[5]
  IC50: > 50 µM
[6]
  SI (selectivity index): > 1.0
  IC50: > 50 µM
[7]
  IC50: > 50 µM
[8]
  IC50: > 50 µM
[9]
  IC50: > 50 µM
[10]
  IC50: > 50 µM
[11]
  IC50: > 50 µM

## C=C(C)[C@@H]1CC[C@]2(C(=O)OCc3ccccc3)CC[C@]3(C)C(CCC4[C@@]5(C)C=C(c6ccc(Cl)s6)C(=O)C(C)(C)C5CC[C@]43C)C12 (stereo partly drawn) [Compound 10e]
[1]
  IC50: > 50 µM
[2]
  IC50: > 50 µM
[3]
  IC50: > 50 µM
[4]
  IC50: > 50 µM
[5]
  IC50: > 50 µM
[6]
  SI (selectivity index): > 1.0
  IC50: > 50 µM
[7]
  IC50: > 50 µM
[8]
  IC50: > 50 µM
[9]
  IC50: > 50 µM
[10]
  IC50: > 50 µM
[11]
  IC50: > 50 µM

## C=C(C)[C@@H]1CC[C@]2(C(=O)OCc3ccccc3)CC[C@]3(C)C(CCC4[C@@]5(C)C=C(c6cccnc6)C(=O)C(C)(C)C5CC[C@]43C)C12 (stereo partly drawn) [Compound 10g, Benzyl 2-(3-Pyridinyl)-3-oxolupa-1,20(29)-dien-28-oate]
[1]
  IC50: > 50 µM
[2]
  IC50: > 50 µM
[3]
  IC50: > 50 µM
[4]
  IC50: > 50 µM
[5]
  IC50: > 50 µM
[6]
  SI (selectivity index): > 1.0
  IC50: > 50 µM
[7]
  IC50: > 50 µM
[8]
  IC50: > 50 µM
[9]
  IC50: > 50 µM
[10]
  IC50: > 50 µM
[11]
  IC50: > 50 µM

## C=C(C)[C@@H]1CC[C@]2(C(=O)OCc3ccccc3)CC[C@]3(C)C(CCC4[C@@]5(C)C=C(c6ccncc6)C(=O)C(C)(C)C5CC[C@]43C)C12 (stereo partly drawn) [Compound 10h, Benzyl 2-(4-Pyridinyl)-3-oxolupa-1,20(29)-dien-28-oate]
[1]
  IC50: > 50 µM
[2]
  IC50: > 50 µM
[3]
  IC50: > 50 µM
[4]
  IC50: > 50 µM
[5]
  IC50: > 50 µM
[6]
  SI (selectivity index): > 1.0
  IC50: > 50 µM
[7]
  IC50: > 50 µM
[8]
  IC50: > 50 µM
[9]
  IC50: > 50 µM
[10]
  IC50: > 50 µM
[11]
  IC50: > 50 µM

## C=C(C)[C@@H]1CC[C@]2(C(=O)OCc3ccccc3)CC[C@]3(C)C(CCC4[C@@]5(C)C=C(c6cncnc6)C(=O)C(C)(C)C5CC[C@]43C)C12 (stereo partly drawn) [Compound 10i, Benzyl 2-(5-Pyrimidinyl)-3-oxolupa-1,20(29)-dien-28-oate]
[1]
  IC50: > 50 µM
[2]
  IC50: > 50 µM
[3]
  IC50: > 50 µM
[4]
  IC50: > 50 µM
[5]
  IC50: > 50 µM
[6]
  SI (selectivity index): > 1.0
  IC50: > 50 µM
[7]
  IC50: > 50 µM
[8]
  IC50: > 50 µM
[9]
  IC50: > 50 µM
[10]
  IC50: > 50 µM
[11]
  IC50: > 50 µM

## C=C(C)[C@@H]1CC[C@]2(C(=O)OCc3ccccc3)CC[C@]3(C)C(CCC4[C@@]5(C)C=C(c6ccc7c(c6)OCCO7)C(=O)C(C)(C)C5CC[C@]43C)C12 (stereo partly drawn) [Compound 10j, Benzyl 2-(1,4-Benzodioxan)-3-oxolupa-1,20(29)-dien-28-oate]
[1]
  IC50: > 50 µM
[2]
  IC50: > 50 µM
[3]
  IC50: > 50 µM
[4]
  IC50: > 50 µM
[5]
  IC50: > 50 µM
[6]
  SI (selectivity index): > 1.0
  IC50: > 50 µM
[7]
  IC50: > 50 µM
[8]
  IC50: > 50 µM
[9]
  IC50: > 50 µM
[10]
  IC50: > 50 µM
[11]
  IC50: > 50 µM

## C=C(C)[C@@H]1CC[C@]2(C(=O)OCc3ccccc3)CC[C@]3(C)C(CCC4[C@@]5(C)C=C(c6cc7ccccc7s6)C(=O)C(C)(C)C5CC[C@]43C)C12 (stereo partly drawn) [Compound 10k, Benzyl 2-(Benzo[b]thien-2-yl)-3-oxolupa-1,20(29)-dien-28-oate]
[1]
  IC50: > 50 µM
[2]
  IC50: > 50 µM
[3]
  IC50: > 50 µM
[4]
  IC50: > 50 µM
[5]
  IC50: > 50 µM
[6]
  SI (selectivity index): > 1.0
  IC50: > 50 µM
[7]
  IC50: > 50 µM
[8]
  IC50: > 50 µM
[9]
  IC50: > 50 µM
[10]
  IC50: > 50 µM
[11]
  IC50: > 50 µM

## C=C(C)[C@@H]1CC[C@]2(C(=O)OCc3ccccc3)CC[C@]3(C)C(CCC4[C@@]5(C)C=C(c6cncc7ccccc67)C(=O)C(C)(C)C5CC[C@]43C)C12 (stereo partly drawn) [Compound 10l, Benzyl 2-(4-Isoquinoline)-3-oxolupa-1,20(29)-dien-28-oate]
[1]
  IC50: > 50 µM
[2]
  IC50: > 50 µM
[3]
  IC50: > 50 µM
[4]
  IC50: > 50 µM
[5]
  IC50: > 50 µM
[6]
  SI (selectivity index): > 1.0
  IC50: > 50 µM
[7]
  IC50: > 50 µM
[8]
  IC50: > 50 µM
[9]
  IC50: > 50 µM
[10]
  IC50: > 50 µM
[11]
  IC50: > 50 µM

## C=C(C)[C@@H]1CC[C@]2(C(=O)OCc3ccccc3)CC[C@]3(C)C(CCC4[C@@]5(C)C=C(c6ccc7[nH]ccc7c6)C(=O)C(C)(C)C5CC[C@]43C)C12 (stereo partly drawn) [Compound 10m, Benzyl 2-(Indol-5-yl)-3-oxolupa-1,20(29)-dien-28-oate]
[1]
  IC50: > 50 µM
[2]
  IC50: > 50 µM
[3]
  IC50: > 50 µM
[4]
  IC50: > 50 µM
[5]
  IC50: > 50 µM
[6]
  SI (selectivity index): > 1.0
  IC50: > 50 µM
[7]
  IC50: > 50 µM
[8]
  IC50: > 50 µM
[9]
  IC50: > 50 µM
[10]
  IC50: > 50 µM
[11]
  IC50: > 50 µM
